Results as given in patent US20110065715A1, “Nogo Receptor Binding Small Molecules to Promote Axonal Growth” (Yale University, priority 2007, published 2011).
Entries after “also recorded” stand apart in the source; their conditions may differ. Like-named read-outs stand apart in the source and are kept apart here.

Columns and labels:
[1] = test system: Nogo receptor:Nogo ligand (Nogo 66) interaction; assay: DELFIA assay of Fc-NgR:Ng66 interaction; assay type: binding
Procedure: ELISA and DELFIA assays were then performed to evaluate the ability of the small molecules that were identified as “hits” in the AlphaScreens to inhibit the interaction of NgR and Nogo ligand. In the DELFIA Assay, 96 well streptavidin coated plates were blocked overnight with PBS and 10 mg/ml bovine serum albumin (BSA) (200 μl). The wells were then coated for 1.5 hours with sonicated HBH (Hanks Balanced Salt Solution/0.1 M HEPES/1 mg/ml BSA) containing Nogo 66 (B66) (0.5 μl of 10 mM/10 ml HBH) (50 μl) and then washed 4 times with 200 μl of HBH. The solution containing the inhibitor compound (50 μl in HBH) was added along with 1% FcNgR solution in HBH (50 μl), and the solution was incubated for 2 hours. The wells were washed 5 times with HBH. Alkaline phosphatase (AP) conjugated mouse anti-rat antibody (1:2500) was added and the wells were then washed 5 times with DELFIA wash buffer. The Europium (Eu) anti-mouse antibody was then added in Perlin Elmer Assay, buffer (100 μg/ml) (150 μl) and the wells were again washed 5 times with DELFIA wash buffer. The enhancer solution was added (100 μl) and the plate was read with the Perkin Elmer Victor 5 instrument 15 minutes later. (FIG. 10B) The results from the DELFIA assay indicate that compounds HTS08871, KM08071, and 503749, as well as the positive control, NEP33, inhibit the Nogo receptor:Nogo ligand (Nogo 66) interaction. (FIGS. 10D and 11A-C).

[2] = test system: embryonic day 13 or 14 chick DRG neurons; assay: Neurite outgrowth assay, E13/E14 chick DRG neurons; assay type: cell-based, chicken; settings: 20 μM
Procedure: To test the ability of the “hit” compounds to promote neurite outgrowth, a neurite outgrowth assay was performed using each of these compounds. Dorsal root ganglia (DRG) were removed from chicken embryos at embryonic day 13 or 14, dissociated by trituration after 30 min incubation in 0.5% collagenase, and plated on laminin-coated 96-well tissue culture plates in DMEM with 10% fetal bovine serum containing 20 μM of the test compound. After two to four hours of incubation, the cells were fixed in 4% formaldehyde in phosphate buffered saline (PBS), washed in PBS, and blocked for 1 hour in PBS with 0.1% triton X-100 and 10% goat serum. The cells were incubated in rabbit anti-beta-3-tubulin (1:500) in PBS overnight and then washed 3 times with PBS. The cells were then incubated in Alexa-fluor 488 goat anti-rabbit IgG (1:500) for 6 hrs, washed with PBS, and imaged at 10× with an ImagExpress automated microscope (Molecular Devices, Inc.). Neurite outgrowth was measured with AcuityExpress software (Molecular Devices, Inc.).

[3] = test system: postnatal day 15 (P15) wild type mouse DRG neurons; assay: Neurite outgrowth, P15 wild type mouse DRG neurons; assay type: cell-based; settings: 24 hours
Procedure: (§1) However, the inhibition of neurite outgrowth by the compound S is believed to be independent of its interaction with the Nogo receptor-Nogo ligand complex. Dorsal root ganglia (DRG) were removed from wild type or NgR1 knockout mouse pups at postnatal day 15, dissociated by trituration after 30 min incubation in 0.5% collagenase, plated on laminin-coated 96-well tissue culture plates in DMEM with 10% fetal bovine serum and B27. After 24 hours, cells were fixed in 4% formaldehyde in phosphate buffered saline (PBS), washed in PBS, and blocked for 1 hour in PBS with 0.1% triton X-100 and 10% goat serum. The cells were then incubated in rabbit anti-beta-3-tubulin (1:500) in PBS overnight. After washing 3 times, the cells were incubated in Alexa-fluor 488 goat anti-rabbit IgG (1:500) for 6 hrs, washed with PBS, and imaged at 10× with an ImagExpress automated microscope (Molecular Devices, Inc.). Neurite outgrowth was measured with AcuityExpress software (Molecular Devices, Inc.).

[4] = test system: postnatal day 15 (P15) NgR1 knockout mouse DRG neurons; assay: Neurite outgrowth, P15 NgR1 knockout mouse DRG neurons; assay type: cell-based; settings: 24 hours
Procedure: as §1

Compound: N#Cc1ccc(CN2C(=O)CSC2=S)cc1 [S, 4-[(4-oxo-2-thioxo-1,3-thiazolan-3-yl)methyl]benzonitrile]
- inhibition of Nogo receptor:Nogo 66 interaction signal, DELFIA [1]: dose dependent signal inhibition
- inhibition of Nogo receptor:Nogo 66 interaction signal, DELFIA ([1]; listed as 503749): inhibit
- neurite outgrowth compared to the DMSO control ([2]; E13 or E14 chick DRG, two to four hours): inhibited neurite outgrowth
- basal neurite outgrowth, E14 chick DRG neurons ([2]; E14): no basal neurite outgrowth
- neurite outgrowth, wild type mice [3]: inhibits neurite outgrowth; also recorded: inhibitory effect
- neurite outgrowth, NgR1 knockout mice [4]: inhibits neurite outgrowth; also recorded: inhibitory effect
